Legend:
[1] = Lipophilicity: distribution coefficient in 1:1 1-octanol/phosphate-buffered saline at pH 7.4; format: physicochemical
Experimental: (§1) The lipophilicity of [^61Cu]Cu-DOTAGA-PSMA-I&T and [^61Cu]Cu-NODAGA-PSMA-I&T was assessed by determining the distribution coefficient in a 1:1 mixture of 1-octanol–to–phosphate-buffered saline at pH 7.4, in comparison with all reference radiotracers. Inhibitory concentration of 50% (IC50) was assessed by competition binding on lymph node carcinoma of the prostate (LNCaP) using ((S)-1-carboxy-5-(4-(-^125I-iodo-benzamido)pentyl)carbamoyl)-L-glutamic acid as the reference radioligand. Cellular uptake and distribution were assessed in LNCaP cells at 5, 15, 30, 60, and 120 min after exposure to the radioligand at 37°C, either alone or in the presence of 10 µM 2-(phosphonomethyl)pentanedioic acid to distinguish between specific and nonspecific uptake.

LNCaP xenografts = test: Biodistribution in LNCaP xenografts; format: in vivo, mice
Experimental: All animal experiments were conducted in accordance with Swiss animal welfare laws and regulations under license number 30515 granted by the Veterinary Office, Department of Health, Canton Basel-Stadt, Switzerland. Male athymic nude-Foxn1^nu/Foxn1^+ mice (Envigo), 4–6 wk old, were inoculated subcutaneously on the shoulder with 10^7 LNCaP cells, freshly suspended in a 1:1 ratio of sterile minimum essential medium with basal medium Eagle and Matrigel. The tumors were allowed to grow to a volume of approximately 200 mm^3.
The biodistribution of [^61Cu]Cu-DOTAGA-PSMA-I&T and [^61Cu]Cu-NODAGA-PSMA-I&T (100 µL/200 pmol/2–3 MBq) was compared with that of [^68Ga]Ga-DOTAGA-PSMA-I&T, [^68Ga]Ga-NODAGA-PSMA-I&T, and [^68Ga]Ga-PSMA-11 (100 µL/200 pmol/3–5 MBq), as well as [^18F]PSMA-1007 (100 µL/70 pmol/15 MBq). This comparison was conducted at 1 h after injection for all radiotracers and at 4 h after injection for the ^61Cu-labeled tracers and [^18F]PSMA-1007. The specificity of the ^61Cu-labeled tracers was assessed at 1 h after injection by blocking studies with 2-(phosphonomethyl)pentanedioic acid (100 µL/1.3 µmol) being injected 3–5 min before the injection of the radiotracer.

LNCaP cells = test: Cellular uptake and distribution (surface-bound, internalized) in LNCaP cells; format: cell-based; settings: 1 h, 37°C, specific uptake
Experimental: as §1
(§2) FIGURE 1. In vitro assessment in LNCaP cells after 1 h at 37°C. (A) Competition binding activity curves of ^natCu-DOTAGA-PSMA-I&T, ^natCu-NODAGA-PSMA-I&T, and ^natGa-PSMA-11 on LNCaP cells after 1 h of incubation on ice, using ((S)-1-carboxy-5-(4-(-^125I-iodo-benzamido)pentyl)carbamoyl)-L-glutamic acid ([^125I-BA]KuE) at concentration of 0.2 nM as reference radioligand. (B) Cellular uptake (surface-bound + internalized). Cell surface–bound and internalized fractions are indicated. Results represent mean ± SD of specific (total − nonspecific) uptake from minimum of 2 separate experiments, each in triplicate.

PSMA = target: T1, PSMA (Homo sapiens, UniProt Q04609); test: Competition binding on LNCaP cells using [^125I-BA]KuE as reference radioligand; settings: [^125I-BA]KuE 0.2 nM, 1 h on ice, determined with natCu/natGa complexes
T1 construct: endogenous in cells; host or cells: LNCaP cells
Experimental: as §1, §2

T1 sequence (Q04609 whole entry): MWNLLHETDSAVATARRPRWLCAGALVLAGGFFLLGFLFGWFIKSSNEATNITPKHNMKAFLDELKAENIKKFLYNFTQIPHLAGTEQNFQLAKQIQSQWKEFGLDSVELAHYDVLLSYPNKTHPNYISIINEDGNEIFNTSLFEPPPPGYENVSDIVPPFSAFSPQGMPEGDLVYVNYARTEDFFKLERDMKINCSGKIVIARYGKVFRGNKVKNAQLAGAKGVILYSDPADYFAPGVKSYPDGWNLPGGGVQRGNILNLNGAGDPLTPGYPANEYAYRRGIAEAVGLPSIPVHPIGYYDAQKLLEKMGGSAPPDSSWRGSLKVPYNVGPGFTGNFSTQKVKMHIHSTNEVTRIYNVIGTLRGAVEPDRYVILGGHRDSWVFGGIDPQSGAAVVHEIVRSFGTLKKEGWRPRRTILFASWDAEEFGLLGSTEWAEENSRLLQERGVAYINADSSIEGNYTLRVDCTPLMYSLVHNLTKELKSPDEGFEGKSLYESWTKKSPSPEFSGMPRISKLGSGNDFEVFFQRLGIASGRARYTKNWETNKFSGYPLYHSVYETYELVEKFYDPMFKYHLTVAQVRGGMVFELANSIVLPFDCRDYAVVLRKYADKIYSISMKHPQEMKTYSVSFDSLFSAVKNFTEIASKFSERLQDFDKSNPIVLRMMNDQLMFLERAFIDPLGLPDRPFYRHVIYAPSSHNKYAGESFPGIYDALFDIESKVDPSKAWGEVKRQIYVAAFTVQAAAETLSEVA

## O=C(O)CC[C@H](NC(=O)N[C@@H](CCCCNC(=O)[C@H](Cc1ccc2ccccc2c1)NC(=O)c1ccc(CNC(=O)[C@H](CCC(=O)O)NC(=O)[C@H](CCC(=O)O)NC(=O)c2ccc([18F])nc2)cc1)C(=O)O)C(=O)O [[^18F]PSMA-1007, reference compound]
[1]
  logDpH7.4: −3.02 ± 0.11
LNCaP xenografts; 1 h after injection
  Biodistribution, Adrenals: 7.18 ± 2.20 %IA/g
  Biodistribution, Blood: 0.41 ± 0.11 %IA/g
  Biodistribution, Femur: 0.94 ± 0.13 %IA/g
  Biodistribution, Heart: 1.25 ± 0.29 %IA/g
  Biodistribution, Intestine: 1.04 ± 0.33 %IA/g
  Biodistribution, Kidneys: 100 ± 17 %IA/g
  Biodistribution, Liver: 0.93 ± 0.26 %IA/g
  Biodistribution, Lung: 2.08 ± 0.24 %IA/g
  Biodistribution, Muscles: 0.53 ± 0.09 %IA/g
  Biodistribution, Pancreas: 1.32 ± 0.58 %IA/g
  Biodistribution, Salivary glands: 2.54 ± 0.72 %IA/g
  Biodistribution, Spleen: 11.0 ± 1.1 %IA/g
  Biodistribution, Stomach: 0.75 ± 0.15 %IA/g
  Biodistribution, Tumor (tumor uptake): 9.70 ± 2.57 %IA/g
  Tumor-to-Adrenals ratio: 1.45 ± 0.55
  Tumor-to-Blood ratio: 25.8 ± 11.5
  Tumor-to-Intestine ratio: 10.3 ± 4.8
  Tumor-to-Kidneys ratio: 0.10 ± 0.03
  Tumor-to-Liver ratio: 11.3 ± 4.5
  Tumor-to-Muscles ratio: 19.2 ± 6.5
  Tumor-to-Salivary glands ratio: 4.12 ± 1.60
  Tumor-to-Spleen ratio: 0.89 ± 0.20
LNCaP xenografts; 4 h after injection
  Biodistribution, Adrenals: 8.03 ± 2.66 %IA/g
  Biodistribution, Blood: 0.17 ± 0.04 %IA/g
  Biodistribution, Femur: 0.62 ± 0.11 %IA/g
  Biodistribution, Heart: 0.53 ± 0.23 %IA/g
  Biodistribution, Intestine: 0.43 ± 0.22 %IA/g
  Biodistribution, Kidneys: 132 ± 9 %IA/g
  Biodistribution, Liver: 0.32 ± 0.16 %IA/g
  Biodistribution, Lung: 1.61 ± 0.58 %IA/g
  Biodistribution, Muscles: 0.27 ± 0.11 %IA/g
  Biodistribution, Pancreas: 0.80 ± 0.32 %IA/g
  Biodistribution, Salivary glands: 1.62 ± 0.43 %IA/g
  Biodistribution, Spleen: 8.33 ± 2.11 %IA/g
  Biodistribution, Stomach: 0.47 ± 0.16 %IA/g
  Biodistribution, Tumor (tumor uptake): 6.28 ± 2.19 %IA/g
  Tumor-to-Adrenals ratio: 0.78 ± 0.11
  Tumor-to-Blood ratio: 42.7 ± 16.4
  Tumor-to-Intestine ratio: 12.4 ± 4.4
  Tumor-to-Kidneys ratio: 0.04 ± 0.01
  Tumor-to-Liver ratio: 18.4 ± 8.5
  Tumor-to-Muscles ratio: 20.1 ± 2.5
  Tumor-to-Salivary glands ratio: 3.63 ± 0.40
  Tumor-to-Spleen ratio: 0.71 ± 0.12

## O=C([O-])CN1CCN(CC(=O)[O-])CCN(C(CCC(=O)N[C@H](Cc2ccc(O)c(I)c2)C(=O)N[C@H](Cc2ccccc2)C(=O)N[C@H](CCCCNC(=O)CCCCCCC(=O)NCCCC[C@H](NC(=O)N[C@@H](CCC(=O)O)C(=O)O)C(=O)O)C(=O)O)C(=O)O)CCN(CC(=O)[O-])CC1.[68Ga+3] (some centres unmarked) [[^68Ga]Ga-DOTAGA-PSMA-I&T, reference compound]
LNCaP cells
  Cellular uptake (surface-bound + internalized): 20.6% ± 2.3%

## O=C([O-])CN1CCN(CC(=O)[O-])CCN(C(CCC(=O)N[C@H](Cc2ccc(O)c(I)c2)C(=O)N[C@H](Cc2ccccc2)C(=O)N[C@H](CCCCNC(=O)CCCCCCC(=O)NCCCC[C@H](NC(=O)N[C@@H](CCC(=O)O)C(=O)O)C(=O)O)C(=O)O)C(=O)[O-])CC1.[68Ga+3] (some centres unmarked) [[^68Ga]Ga-NODAGA-PSMA-I&T]
LNCaP cells
  Cellular uptake (surface-bound + internalized): 18.1% ± 2.6%

## O=C([O-])CN(CCN(CC(=O)[O-])Cc1cc(CCC(=O)NCCCCCC(=O)NCCCC[C@H](NC(=O)N[C@@H](CCC(=O)O)C(=O)O)C(=O)O)ccc1[O-])Cc1cc(CCC(=O)O)ccc1[O-].[68Ga+3].[OH3+] [[^68Ga]Ga-PSMA-11, reference compound]
[1]
  logDpH7.4: −3.89 ± 0.19
LNCaP xenografts; 1 h after injection
  Biodistribution, Adrenals: 19.2 ± 5.3 %IA/g
  Biodistribution, Blood: 0.25 ± 0.07 %IA/g
  Biodistribution, Femur: 3.69 ± 1.86 %IA/g
  Biodistribution, Heart: 0.32 ± 0.10 %IA/g
  Biodistribution, Intestine: 1.52 ± 0.60 %IA/g
  Biodistribution, Kidneys: 159 ± 31 %IA/g
  Biodistribution, Liver: 0.54 ± 0.27 %IA/g
  Biodistribution, Lung: 1.43 ± 0.43 %IA/g
  Biodistribution, Muscles: 0.90 ± 0.36 %IA/g
  Biodistribution, Pancreas: 0.70 ± 0.12 %IA/g
  Biodistribution, Salivary glands: 1.56 ± 0.31 %IA/g
  Biodistribution, Spleen: 6.38 ± 1.37 %IA/g
  Biodistribution, Stomach: 0.69 ± 0.11 %IA/g
  Biodistribution, Tumor (tumor uptake): 10.2 ± 1.5 %IA/g
  Tumor-to-Adrenals ratio: 0.58 ± 0.26
  Tumor-to-Blood ratio: 45.3 ± 19.7
  Tumor-to-Intestine ratio: 8.66 ± 6.90
  Tumor-to-Kidneys ratio: 0.07 ± 0.02
  Tumor-to-Liver ratio: 23.5 ± 12.5
  Tumor-to-Muscles ratio: 13.6 ± 8.3
  Tumor-to-Salivary glands ratio: 6.72 ± 1.51
  Tumor-to-Spleen ratio: 1.69 ± 0.58
LNCaP cells
  Cellular uptake (surface-bound + internalized): 25.8% ± 0.5%

## O=C([O-])CN1CCN(CC(=O)O)CCN(CC(=O)[O-])CCN(C(CCC(=O)N[C@H](Cc2ccc(O)c(I)c2)C(=O)N[C@H](Cc2ccccc2)C(=O)N[C@H](CCCCNC(=O)CCCCCCC(=O)NCCCC[C@H](NC(=O)N[C@@H](CCC(=O)O)C(=O)O)C(=O)O)C(=O)O)C(=O)O)CC1.[Cu+2] (some centres unmarked) [^natCu-DOTAGA-PSMA-I&T]
PSMA
  IC50: 11.2 ± 2.3 nM

## O=C([O-])CN1CCN(CC(=O)[O-])CCN(C(CCC(=O)N[C@H](Cc2ccc(O)c(I)c2)C(=O)N[C@H](Cc2ccccc2)C(=O)N[C@H](CCCCNC(=O)CCCCCCC(=O)NCCCC[C@H](NC(=O)N[C@@H](CCC(=O)O)C(=O)O)C(=O)O)C(=O)O)C(=O)O)CC1.[Cu+2] (some centres unmarked) [^natCu-NODAGA-PSMA-I&T]
PSMA
  IC50: 9.3 ± 1.8 nM

## O=C([O-])CN(CCN(CC(=O)[O-])Cc1cc(CCC(=O)NCCCCCC(=O)NCCCC[C@H](NC(=O)N[C@@H](CCC(=O)O)C(=O)O)C(=O)O)ccc1O)Cc1cc(CCC(=O)O)ccc1[O-].[Ga+3] [^natGa-PSMA-11, reference compound]
PSMA
  IC50: 2.4 ± 0.4 nM

Source: paper PMC11372264, “^61Cu-PSMA–Targeted PET for Prostate Cancer: From Radiotracer Development to First-in-Human Imaging” (Journal of Nuclear Medicine, 2024)
